Legend:
Assay type in all cases: functional
Rattus norvegicus [1] = species on record: Rattus norvegicus; test: Time-related potentiation of methamphetamine-induced anorexia in rats at the lowest active dose.; settings: read-out: MED
Rattus norvegicus [2] = species on record: Rattus norvegicus; test: Potentiation of Methamphetamine effect for intracranial self stimulation(SS) in rats
Rattus norvegicus [3] = test: Amount of milk ingested after the 15 min methamphetamine-challenges, produced by the compound at 0.625 mg/kg in fasted rats
Rattus norvegicus [4] = test: Amount of milk ingested after the 120 min methamphetamine-challenges, produced by the compound at 10 mg/kg in fasted rats
Rattus norvegicus [5] = test: Amount of milk ingested after the 120 min methamphetamine-challenges, produced by the compound at 5 mg/kg in fasted rats
Rattus norvegicus [6] = test: Amount of milk ingested after the 15 min methamphetamine-challenges, produced by the compound at 1.25 mg/kg in fasted rats
Rattus norvegicus [7] = test: Amount of milk ingested after the 120 min methamphetamine-challenges, produced by the compound at 0.625 mg/kg in fasted rats
Rattus norvegicus [8] = test: Amount of milk ingested after the 15 min methamphetamine-challenges, produced by the compound at 5 mg/kg in fasted rats
Rattus norvegicus [9] = test: Amount of milk ingested after the 120 min methamphetamine-challenges, produced by the compound at 2.5 mg/kg in fasted rats
Rattus norvegicus [10] = test: Amount of milk ingested after the 15 min methamphetamine-challenges, produced by the compound at 2.5 mg/kg in fasted rats
Rattus norvegicus [11] = test: Amount of milk ingested after the 120 min methamphetamine-challenges, produced by the compound at 1.25 mg/kg in fasted rats
Rattus norvegicus [12] = test: Amount of milk ingested after the 15 min methamphetamine-challenges, produced by the compound at 10 mg/kg in fasted rats
Rattus norvegicus [13] = test: Amount of milk ingested after the 15 min methamphetamine-challenges, produced by the compound at 0.312 mg/kg in fasted rats
Rattus norvegicus [14] = test: Amount of milk ingested after the 120 min methamphetamine-challenges, produced by the compound at 0.312 mg/kg in fasted rats

| SMILES | minimal effective dose (Rattus norvegicus [1]) [mg/kg] | other results |
| --- | --- | --- |
| Cc1nn(C)c2c1C(c1ccccc1Cl)=NCCN2 | 2.5 | – |
| Cc1nn(C)c2c1C(c1cccc(Cl)c1)=NC(C)(C)CN2 | 2.5 | Dose (Rattus norvegicus [2]): 10 mg/kg |
| Cc1nn(C)c2c1C(c1ccccc1Cl)=NCCN2CCCN(C)C | > 10 | – |
| Cc1nn(C)c2c1C(c1ccc(Cl)c(Cl)c1)=NCCN2 | 2.5 | – |
| CCn1nc(C)c2c1NCCN=C2c1cccc(C(F)(F)F)c1 | 0.63 | – |
| Cc1nn(C)c2c1C(c1cccc(Cl)c1C)=NCCN2 | 1.25 | Dose (Rattus norvegicus [2]): 5 mg/kg |
| Cc1nn(C)c2c1C(c1cccc(Br)c1)=NCCN2 | 0.63 | Dose (Rattus norvegicus [2]): 5 mg/kg |
| CCc1nn(C)c2c1C(c1cccc(Br)c1)=NCCN2 | 1.25 | Dose (Rattus norvegicus [2]): 5 mg/kg |
| Cc1cccc(C2=NC(C)(C)CNc3c2c(C)nn3C)c1 | > 10 | – |
| CCc1nn(C)c2c1C(c1cccc(C)c1)=NCCN2 | 5 | – |
| Cc1nn(C)c2c1C(c1ccccc1)=NCCN2C | 2.5 | Dose (Rattus norvegicus [2]): >10 mg/kg |
| Cc1nn(C)c2c1C(c1ccccc1)=NCC1CCCCN21 (stereo unspecified) | 5 | – |
| Cc1nn(C)c2c1C(c1cccc(O)c1)=NCCN2 | 2.5 | Dose (Rattus norvegicus [2]): 10 mg/kg |
| Cc1ccc(C2=NCCNc3c2c(C)nn3C)cc1 | 2.5 | – |
| COc1ccc(C2=NCCNc3c2c(C)nn3C)cc1 | > 10 | – |
| Cc1nn(C)c2c1C(c1cccc(Cl)c1)=NCC1CCCCN21 (stereo unspecified) | 2.5 | – |
| CC(=O)N1CCN=C(c2cccc(Cl)c2)c2c(C)nn(C)c21 | > 10 | – |
| CCN1CCN=C(c2cccc(Cl)c2)c2c(C)nn(C)c21 | 0.63 | – |
| Cc1n[nH]c2c1C(c1cccc(Cl)c1)=NCCN2 | 2.5 | – |
| Cc1cc(C)cc(C2=NCCNc3c2c(C)nn3C)c1 | > 10 | – |
| Cc1nn(C)c2c1C(c1cccc(N)c1)=NCCN2 | 2.5 | – |
| Cc1nn(C)c2c1C(c1cccc([N+](=O)[O-])c1)=NCCN2 | 5 | – |
| Cc1nn(C)c2c1C(c1ccccc1)=NC(C)C(C)N2 (stereo unspecified) | 10 | – |
| Cc1nn(C)c2c1C(c1ccc(Cl)cc1)=NCCN2 | 2.5 | – |
| Cc1nn(C)c2c1C(c1cccc(N=[N+]=[N-])c1)=NCCN2 | 2.5 | – |

| SMILES | minimal effective dose (Rattus norvegicus [1]) [mg/kg] | other results |
| --- | --- | --- |
| CCc1nn(C)c2c1C(c1cccc(F)c1)=NCCN2 | 2.5 | – |
| Cc1nn(C)c2c1C(c1ccccc1Cl)=NCC(C#N)N2 (stereo unspecified) | > 10 | – |
| Cc1nn(C)c2c1C(c1cccc(Cl)c1)=NC(C)CN2 (stereo unspecified) | 0.63 | – |
| Cc1nn(C)c2c1C(c1cccc(Cl)c1)=[N+]([O-])CCN2 | > 10 | – |
| Cc1nn(C)c2c1C(c1cccc(Cl)c1)=NCCN2CCCN(C)C | > 10 | – |
| Cc1nn(C)c2c1C(c1cccc(Cl)c1)=NCCN2C | 0.63 | – |
| CCc1nn(C)c2c1C(c1cccc(F)c1)=NCCN2CCCN(C)C | > 10 | – |
| Cc1nn(C)c2c1C(c1cccc(Cl)c1)=NCCN2CCN1CCCC1 | > 10 | – |
| Cc1nn(C)c2c1C(c1cccc(F)c1)=NCCN2 | 2.5 | Dose (Rattus norvegicus [2]): 2.5 mg/kg |
| Cc1cccc(C2=NCCNc3c2c(C)nn3C)c1 | 2.5 | Dose (Rattus norvegicus [2]): 10 mg/kg |
| Cc1nn(C)c2c1C(c1cccc(Cl)c1)=NCCN2N=O | 1.25 | – |
| Cc1nn(C)c2c1C(c1cccc(C(F)(F)F)c1)=NCCN2 | 0.63 | Dose (Rattus norvegicus [2]): 1.25 mg/kg |
| Cc1ccc(C2=NCCN(CCCN(C)C)c3c2c(C)nn3C)cc1 | > 10 | – |
| Cc1nn(C)c2c1C(c1cccc(F)c1)=NCCN2CCCN(C)C | > 10 | – |
| Cc1nn(C)c2c1C(c1ccc(O)cc1)=NCCN2C | 2.5 | Dose (Rattus norvegicus [2]): 5 mg/kg |
| Cc1nn(C)c2c1C(c1ccccc1)=NCCN2CCCN(C)C | > 10 | – |
| Cc1cccc(C2=NCCN(CCCN(C)C)c3c2c(C)nn3C)c1 | > 10 | – |
| Cc1ccc(C)c(C2=NCCNc3c2c(C)nn3C)c1 | > 10 | – |
| Cc1nn(C)c2c1C(c1ccccc1Cl)=NCCN2C | 2.5 | – |
| COc1cc(OC)cc(C2=NCCNc3c2c(C)nn3C)c1 | 2.5 | Dose (Rattus norvegicus [2]): 10 mg/kg |
| Cc1nn(C)c2c1C(c1cccc(C#N)c1)=NCCN2 | 1.25 | – |
| CCn1nc(C)c2c1N(C)CCN=C2c1ccccc1Cl | 5 | Dose (Rattus norvegicus [2]): >10 mg/kg |
| Cc1nn(C)c2c1C(c1ccccc1)=NCCN2.Cl | 2.5 | – |
| CN(C)CCCN1c2ccccc2CCc2ccccc21 [IMIPRAMINE] | 2.5 | Amount (Rattus norvegicus [3]): 4 mL; Amount (Rattus norvegicus [4]): 0 mL; Amount (Rattus norvegicus [5]): 0.1 mL; Amount (Rattus norvegicus [6]): 2.7 mL; Amount (Rattus norvegicus [7]): 3.3 mL; Amount (Rattus norvegicus [8]): 0.5 mL; Amount (Rattus norvegicus [9]): 2.2 mL; Amount (Rattus norvegicus [10]): 3.3 mL; Amount (Rattus norvegicus [11]): 4.8 mL; Amount (Rattus norvegicus [12]): 0 mL; Dose (Rattus norvegicus [2]): 1.25 mg/kg |
| Cc1nn(C)c2c1C(c1cccc(Cl)c1)=NCCN2 [ZOMETAPINE] | 0.63 | Amount (Rattus norvegicus [13]): 4.2 mL; Amount (Rattus norvegicus [3]): 1.1 mL; Amount (Rattus norvegicus [4]): 0.1 mL; Amount (Rattus norvegicus [5]): 0.1 mL; Amount (Rattus norvegicus [6]): 1.7 mL; Amount (Rattus norvegicus [7]): 0.5 mL; Amount (Rattus norvegicus [14]): 3.6 mL; Amount (Rattus norvegicus [8]): 0.1 mL; Amount (Rattus norvegicus [9]): 0.2 mL; Amount (Rattus norvegicus [10]): 0 mL; Amount (Rattus norvegicus [11]): 0.2 mL; Amount (Rattus norvegicus [12]): 0 mL; Dose (Rattus norvegicus [2]): 1.25 mg/kg |

From ChEMBL document CHEMBL1121895, “Pyrazolodiazepines. 3. 4-Aryl-1,6,7,8-tetrahydro-1,3-dialkylpyrazolo[3,4-e][1,4]diazepines as antidepressant agents” (1981)
